ChEMBL document CHEMBL3885881, “DrugMatrix”

Species: Rattus norvegicus
Test: DrugMatrix - Regimen: Daily Repeat
Assay type: toxicity, organism-based, Sprague-Dawley
Design: regimen Daily Repeat, gender Male, age 6-8 weeks
Conditions: in vivo, po, route oral GAVAGE, vehicle 100 % WATER; for ABSOLUTE BASOPHIL / ABSOLUTE EOSINOPHIL / ABSOLUTE LYMPHOCYTE / ABSOLUTE MONOCYTE / ABSOLUTE SEGMENTED NEUTROPHIL / BASOPHIL / EOSINOPHIL / ERYTHROCYTE COUNT / HEMATOCRIT / HEMOGLOBIN / LEUKOCYTE COUNT / LYMPHOCYTE / MEAN CORPUSCULAR HEMOGLOBIN / MEAN CORPUSCULAR HEMOGLOBIN CONCENTRATION / MEAN CORPUSCULAR VOLUME / MONOCYTE / NEUTROPHIL / NUCLEATED RED BLOOD CELLS / PLATELET COUNT: tissue Blood; for ALANINE AMINOTRANSFERASE / ALBUMIN / ALKALINE PHOSPHATASE / ASPARTATE AMINOTRANSFERASE / BLOOD UREA NITROGEN / CARBON DIOXIDE / CHLORIDE / CHOLESTEROL / CREATINE PHOSPHOKINASE / CREATININE / GLUCOSE / LACTATE DEHYDROGENASE / LIPASE / PHOSPHORUS / POTASSIUM / SODIUM / TOTAL BILIRUBIN / TOTAL PROTEIN / URIC ACID: tissue Plasma
[1] = 0 mg/kg, 72 h, dose level Control, time 3 day
[2] = 0 mg/kg, 120 h, dose level Control, time 5 day
[3] = 15 mg/kg, 72 h, dose level Low, time 3 day

NNC(=O)c1ccncc1 [ISONIAZID]
ABSOLUTE BASOPHIL [1]: 0 CELLS/uL | ABSOLUTE EOSINOPHIL [1]: 46 CELLS/uL | ABSOLUTE LYMPHOCYTE [1]: 10225.67 CELLS/uL | ABSOLUTE MONOCYTE [1]: 319.33 CELLS/uL | ABSOLUTE SEGMENTED NEUTROPHIL [1]: 1242.33 CELLS/uL | BASOPHIL [1]: 0% | EOSINOPHIL [1]: 0.33% | ERYTHROCYTE COUNT [1]: 5.17 x10E6/uL | HEMATOCRIT [1]: 33.43% | HEMOGLOBIN [1]: 12.55 G/DL | LEUKOCYTE COUNT [1]: 11.83 x10E3/uL | LYMPHOCYTE [1]: 86.5% | MEAN CORPUSCULAR HEMOGLOBIN [1]: 24.35 pg | MEAN CORPUSCULAR HEMOGLOBIN CONCENTRATION [1]: 37.57 G/DL | MEAN CORPUSCULAR VOLUME [1]: 64.8 fL | MONOCYTE [1]: 2.67% | NEUTROPHIL [1]: 10.5% | NUCLEATED RED BLOOD CELLS [1]: 0.17 /100WBC | PLATELET COUNT [1]: 1026.17 x10E3/uL | ALANINE AMINOTRANSFERASE [1]: 52.67 u/L | ALBUMIN [1]: 4.17 G/DL | ALKALINE PHOSPHATASE [1]: 331 u/L | ASPARTATE AMINOTRANSFERASE [1]: 92.33 u/L | BLOOD UREA NITROGEN [1]: 15.33 mg/dL | CARBON DIOXIDE [1]: 26.17 mmol/L | CHLORIDE [1]: 103.17 MEQ/L | CHOLESTEROL [1]: 73.67 mg/dL | CREATINE PHOSPHOKINASE [1]: 472.83 u/L | CREATININE [1]: 0.29 mg/dL | GLUCOSE [1]: 178.5 mg/dL | LACTATE DEHYDROGENASE [1]: 244.83 u/L | LIPASE [1]: 10.67 u/L | PHOSPHORUS [1]: 12.45 mg/dL | POTASSIUM [1]: 6.35 MEQ/L | SODIUM [1]: 144.27 MEQ/L | TOTAL BILIRUBIN [1]: 0.13 mg/dL | TOTAL PROTEIN [1]: 5.77 G/DL | URIC ACID [1]: 2.08 mg/dL | ABSOLUTE BASOPHIL [2]: 0 CELLS/uL | ABSOLUTE EOSINOPHIL [2]: 23.5 CELLS/uL | ABSOLUTE LYMPHOCYTE [2]: 12797.33 CELLS/uL | ABSOLUTE MONOCYTE [2]: 465.5 CELLS/uL | ABSOLUTE SEGMENTED NEUTROPHIL [2]: 1313.67 CELLS/uL | BASOPHIL [2]: 0% | EOSINOPHIL [2]: 0.17% | ERYTHROCYTE COUNT [2]: 5.76 x10E6/uL | HEMATOCRIT [2]: 36.72% | HEMOGLOBIN [2]: 13.72 G/DL | LEUKOCYTE COUNT [2]: 14.6 x10E3/uL | LYMPHOCYTE [2]: 87.5% | MEAN CORPUSCULAR HEMOGLOBIN [2]: 23.8 pg | MEAN CORPUSCULAR HEMOGLOBIN CONCENTRATION [2]: 37.35 G/DL | MEAN CORPUSCULAR VOLUME [2]: 63.72 fL | MONOCYTE [2]: 3.17% | NEUTROPHIL [2]: 9.17% | NUCLEATED RED BLOOD CELLS [2]: 0.33 /100WBC | PLATELET COUNT [2]: 1270.67 x10E3/uL | ALANINE AMINOTRANSFERASE [2]: 50.5 u/L | ALBUMIN [2]: 4.32 G/DL | ALKALINE PHOSPHATASE [2]: 339.67 u/L | ASPARTATE AMINOTRANSFERASE [2]: 88 u/L | BLOOD UREA NITROGEN [2]: 17 mg/dL | CARBON DIOXIDE [2]: 25 mmol/L | CHLORIDE [2]: 103.83 MEQ/L | CHOLESTEROL [2]: 71.33 mg/dL | CREATINE PHOSPHOKINASE [2]: 281.83 u/L | CREATININE [2]: 0.26 mg/dL | GLUCOSE [2]: 161.67 mg/dL | LACTATE DEHYDROGENASE [2]: 191.17 u/L | LIPASE [2]: 10.17 u/L | PHOSPHORUS [2]: 11.72 mg/dL | POTASSIUM [2]: 6.76 MEQ/L | SODIUM [2]: 145.17 MEQ/L | TOTAL BILIRUBIN [2]: 0.2 mg/dL | TOTAL PROTEIN [2]: 6.15 G/DL | URIC ACID [2]: 2 mg/dL | ABSOLUTE BASOPHIL [3]: 0 CELLS/uL | ABSOLUTE EOSINOPHIL [3]: 0 CELLS/uL | ABSOLUTE LYMPHOCYTE [3]: 12954 CELLS/uL | ABSOLUTE MONOCYTE [3]: 520 CELLS/uL | ABSOLUTE SEGMENTED NEUTROPHIL [3]: 1492.67 CELLS/uL | BASOPHIL [3]: 0% | EOSINOPHIL [3]: 0% | ERYTHROCYTE COUNT [3]: 5.66 x10E6/uL | HEMATOCRIT [3]: 34.97% | HEMOGLOBIN [3]: 13.17 G/DL | LEUKOCYTE COUNT [3]: 14.97 x10E3/uL | LYMPHOCYTE [3]: 86.33% | MEAN CORPUSCULAR HEMOGLOBIN [3]: 23.27 pg | MEAN CORPUSCULAR HEMOGLOBIN CONCENTRATION [3]: 37.67 G/DL | MEAN CORPUSCULAR VOLUME [3]: 61.73 fL | MONOCYTE [3]: 3.67% | NEUTROPHIL [3]: 10% | NUCLEATED RED BLOOD CELLS [3]: 0 /100WBC | PLATELET COUNT [3]: 1157.33 x10E3/uL | ALANINE AMINOTRANSFERASE [3]: 52.67 u/L | ALBUMIN [3]: 4.23 G/DL | ALKALINE PHOSPHATASE [3]: 369.67 u/L | ASPARTATE AMINOTRANSFERASE [3]: 95.67 u/L | BLOOD UREA NITROGEN [3]: 14.33 mg/dL | CARBON DIOXIDE [3]: 26 mmol/L | CHLORIDE [3]: 102.33 MEQ/L | CHOLESTEROL [3]: 93.67 mg/dL | CREATINE PHOSPHOKINASE [3]: 235.67 u/L | CREATININE [3]: 0.28 mg/dL | GLUCOSE [3]: 155 mg/dL | LACTATE DEHYDROGENASE [3]: 140.33 u/L | LIPASE [3]: 12 u/L | PHOSPHORUS [3]: 12.77 mg/dL | POTASSIUM [3]: 6.52 MEQ/L | SODIUM [3]: 144.23 MEQ/L | TOTAL BILIRUBIN [3]: 0.2 mg/dL | TOTAL PROTEIN [3]: 5.83 G/DL | URIC ACID [3]: 1.4 mg/dL
